What was measured:
HCT-116 cancer cells = assay: MTT cytotoxicity assay, HCT-116; assay type: cell-based; conditions: Homo sapiens, HCT-116, 48 h, read-out: IC50 ± SD
WI-38 cells = assay: MTT cytotoxicity assay, normal WI-38; assay type: cell-based; conditions: Homo sapiens, WI-38, 48 h, read-out: IC50 ± SD
EGFR = EGFR (Homo sapiens, UniProt P00533); assay: EGFR kinase inhibitory assay; assay type: biochemical; conditions: for IC50: EGFR IC50 ± SD
HCT-116 cells [1] = assay: Annexin V/PI staining flow cytometry; assay type: cell-based
HCT-116 cells [2] = assay: DNA-content cell cycle analysis by flow cytometry; assay type: cell-based; conditions: HCT-116, IC50 = 1.34 μM, 48 h; control 54.19%
[3] = tested on: P53, Bax, caspase-3, caspase-8, caspase-9, Bcl-2 genes in HCT-116 cells; assay: RT-PCR gene expression of apoptosis-related genes; assay type: cell-based; conditions: HCT-116, IC50 = 1.34 μM, 48 h
[4] = three replicates, concentrations 0.001-10 μM

Sequence of EGFR (P00533 25-1210): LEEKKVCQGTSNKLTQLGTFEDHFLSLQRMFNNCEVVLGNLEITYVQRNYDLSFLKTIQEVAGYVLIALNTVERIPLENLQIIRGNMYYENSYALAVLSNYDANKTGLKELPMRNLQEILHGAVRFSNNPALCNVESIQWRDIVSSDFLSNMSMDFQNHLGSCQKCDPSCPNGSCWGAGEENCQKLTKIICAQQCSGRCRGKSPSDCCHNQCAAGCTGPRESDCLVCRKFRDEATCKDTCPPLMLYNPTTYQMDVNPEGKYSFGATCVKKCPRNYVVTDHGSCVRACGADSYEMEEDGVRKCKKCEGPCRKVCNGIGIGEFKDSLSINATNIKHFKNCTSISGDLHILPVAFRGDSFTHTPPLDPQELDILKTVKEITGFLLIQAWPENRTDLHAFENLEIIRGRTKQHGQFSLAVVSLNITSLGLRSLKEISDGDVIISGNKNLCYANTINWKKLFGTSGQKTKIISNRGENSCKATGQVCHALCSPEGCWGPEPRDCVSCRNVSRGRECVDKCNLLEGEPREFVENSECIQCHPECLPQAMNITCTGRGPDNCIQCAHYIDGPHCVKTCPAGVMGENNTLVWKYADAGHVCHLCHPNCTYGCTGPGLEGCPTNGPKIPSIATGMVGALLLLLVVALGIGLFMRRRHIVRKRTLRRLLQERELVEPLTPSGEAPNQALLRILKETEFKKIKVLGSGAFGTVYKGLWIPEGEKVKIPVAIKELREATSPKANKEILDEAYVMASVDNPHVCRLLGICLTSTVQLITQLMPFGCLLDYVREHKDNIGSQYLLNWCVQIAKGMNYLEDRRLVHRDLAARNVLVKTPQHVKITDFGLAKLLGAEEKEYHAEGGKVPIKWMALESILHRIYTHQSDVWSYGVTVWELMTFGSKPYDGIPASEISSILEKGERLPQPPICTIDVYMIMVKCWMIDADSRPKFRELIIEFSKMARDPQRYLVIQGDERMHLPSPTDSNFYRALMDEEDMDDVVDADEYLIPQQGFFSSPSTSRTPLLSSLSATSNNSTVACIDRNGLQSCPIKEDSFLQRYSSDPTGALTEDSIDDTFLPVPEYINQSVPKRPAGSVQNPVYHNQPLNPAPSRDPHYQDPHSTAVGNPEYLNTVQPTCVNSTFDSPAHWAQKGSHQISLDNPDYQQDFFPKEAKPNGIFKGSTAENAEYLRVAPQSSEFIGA

## CC1=C(C(=O)Nc2ccccc2)C(c2ccc3ccc4cccc5ccc2c3c45)NC(=S)N1 (stereo not drawn) [Compound 4a, 6-Methyl-N-phenyl-4-(pyren-1-yl)-2-thioxo-1,2,3,4-tetrahydropyrimidine-5-carboxamide]
HCT-116 cancer cells
  IC50: 4.8 µM
WI-38 cells
  IC50: ≥ 50 µM
EGFR; [4]
  IC50: 0.104 ± 0.00567 µM
EGFR; concentration not given
  EGFR inhibition percentage: 82.3%

## CC1=C(C(=O)Nc2ccccn2)C(c2ccc3ccc4cccc5ccc2c3c45)NC(=S)N1 (stereo not drawn) [Compound 4b, 6-Methyl-4-(pyren-1-yl)-N-(pyridin-2-yl)-2-thioxo-1,2,3,4-tetrahydropyrimidine-5-carboxamide]
HCT-116 cells [1]; HCT-116
  apoptosis induction versus control: 30.2 fold
HCT-116 cells [1]; HCT-116, IC50 = 1.34 μM, 48 h, Q1, control 2.13%
  necrosis: 5.58%
HCT-116 cells [1]; HCT-116, IC50 = 1.34 μM, 48 h, Q2
  late apoptosis: 7.36%
HCT-116 cells [1]; HCT-116, IC50 = 1.34 μM, 48 h, Q4
  early apoptosis: 19.24%
HCT-116 cells [1]; HCT-116, treated at IC50 = 1.34 μM, 48 h, control 0.88%
  cells that died by apoptosis (total): 26.60%
HCT-116 cells [2]
  cell population at G1-phase (%DIP G1): 87.55%
HCT-116 cancer cells
  IC50: 1.34 ± 0.4 µM
[3]
  Bax gene expression fold change: 3.54 fold change
  P53 gene expression fold change: 6.85 fold change
  caspase-3 gene expression fold change: 8.37 fold change
  caspase-8 gene expression fold change: 2.3 fold change
  caspase-9 gene expression fold change: 6.80 fold change
[3]; antiapoptotic gene, decreased
  Bcl-2 gene expression fold change: 0.37 fold change
WI-38 cells
  IC50: ≥ 50 µM
EGFR; [4]
  IC50: 0.077 ± 0.00436 µM

## CC1=C(C(=O)Nc2cccnc2)C(c2ccc3ccc4cccc5ccc2c3c45)NC(=S)N1 (stereo not drawn) [Compound 4c, 6-Methyl-4-(pyren-1-yl)-N-(pyridin-3-yl)-2-thioxo-1,2,3,4-tetrahydropyrimidine-5-carboxamide]
HCT-116 cancer cells
  IC50: 1.9 ± 0.3 µM
WI-38 cells
  IC50: ≥ 50 µM
EGFR; [4]
  IC50: 0.0949 ± 0.00495 µM

## Cc1[nH]c(=O)nc2c1c(=O)oc1ccc3ccccc3c12 [Compound 16, 4-Methyl-2H-benzo[5,6]chromeno[4,3-d]pyrimidine-2,5(3H)-dione]
HCT-116 cancer cells
  IC50: 6.46 µM
WI-38 cells
  IC50: ≥ 50 µM
EGFR; [4]
  EGFR IC50 ± SD: non-detected

## C#Cc1cccc(Nc2ncnc3cc(OCCOC)c(OCCOC)cc23)c1 [Erlotinib, reference compound]
HCT-116 cancer cells
  IC50: 1.32 ± 0.2 µM
WI-38 cells
  IC50: ≥ 50 µM
